Assay results from patent publication US12122785B2, “Substituted pyridines, pyridazines, pyrimidines, and 1,2,4-triazines as TYK2 inhibitors” (Sudo Biosciences Limited, priority 2021, dated 2024).

How the values were obtained:
[1] = tested on: TYK2 pseudokinase (JH2); IL-23-stimulated HEK-Blue IL-23 cells; assay: HEK-Blue IL-23 reporter assay (STAT3-inducible SEAP) for profiling TYK2 pseudokinase (JH2) inhibition; assay type: cell-based; conditions: 10 ng/mL human recombinant IL-23, SEAP readout, read-out: IL23 (TYK2 inhibitory activity, IC50)
Outline: (§1)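 SEAP read-out (QUANTI-Blue) after cytokine stimulation: IL-23 line given 10 ng/mL human IL-23 for 22-24 h; IFNα/β line given 1 ng/mL human IFNα for 16-18 h. Serially diluted compounds added 60 min before cytokine, to cells plated 20-22 h beforehand.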

[2] = tested on: TYK2 pseudokinase (JH2); IFNα-stimulated HEK-Blue IFNα/β cells; assay: HEK-Blue IFNα/β reporter assay (STAT1-inducible SEAP) for profiling TYK2 pseudokinase (JH2) inhibition; assay type: cell-based; conditions: 1 ng/mL human recombinant IFNα, SEAP readout, read-out: IFNα (TYK2 inhibitory activity, IC50)
Outline: as §1

[3] = target: T1, TYK2 kinase domain (JH1) (Homo sapiens, UniProt P29597); assay: HTRF-based selectivity assay, TYK2 catalytic domain; assay type: biochemical; conditions: 20 μM ATP
T1 construct: recombinant purified His or GST-tagged catalytic domain for each enzyme; made in house
T1 sequence (P29597 897-1176 limits assumed): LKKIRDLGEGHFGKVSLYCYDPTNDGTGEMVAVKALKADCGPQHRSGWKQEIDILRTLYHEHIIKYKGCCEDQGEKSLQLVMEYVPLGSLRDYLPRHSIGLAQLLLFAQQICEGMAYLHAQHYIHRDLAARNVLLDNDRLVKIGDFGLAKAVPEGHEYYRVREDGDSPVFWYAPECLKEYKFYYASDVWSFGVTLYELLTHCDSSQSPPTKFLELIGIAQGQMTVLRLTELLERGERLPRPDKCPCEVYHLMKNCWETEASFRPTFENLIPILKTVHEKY

[4] = target: T2, JAK1 kinase domain (JH1) (Homo sapiens, UniProt P23458); assay: HTRF-based selectivity assay, JAK1 catalytic domain; assay type: biochemical; conditions: 21.43 μM ATP, read-out: JAK-JHI (IC50)
T2 construct: recombinant purified His or GST-tagged catalytic domain for each enzyme; made in house
Outline: (§2)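 Recombinant His- or GST-tagged JAK catalytic domains (JAK1 80.6, JAK2 2.1, JAK3 171.8 ng/mL) preincubated with compound 5-20 min at RT, then ATP (JAK1 21.43, JAK2 14.7, JAK3 2.12 μM) plus peptide substrate (454.7, 200, 257.4 nM respectively) added. HEPES buffer with MgCl2, 60 min at 26.5 °C; HTRF read-out.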

[5] = target: T3, JAK2 kinase domain (JH1) (Homo sapiens, UniProt O60674); assay: HTRF-based selectivity assay, JAK2 catalytic domain; assay type: biochemical; conditions: 14.7 μM ATP
T3 construct: recombinant purified His or GST-tagged catalytic domain for each enzyme; made in house
Outline: as §2

[6] = target: T4, JAK3 kinase domain (JH1) (Homo sapiens, UniProt P52333); assay: HTRF-based selectivity assay, JAK3 catalytic domain; assay type: biochemical; conditions: 2.12 μM ATP
T4 construct: recombinant purified His or GST-tagged catalytic domain for each enzyme; purchased Carna biosciences 08-046
Procedure: Example B-2: HTRF-Based Selectivity Assay
The ability of compounds to inhibit the activity of JAK1, JAK2, JAK3 and TYK2 is measured using a recombinant purified His or GST-tagged catalytic domain for each enzyme (JAK1, JAK2 and TYK2 are generated in-house; JAK3 was purchased from Carna biosciences, Cat #08-046) in an HTRF format biochemical assay. The reactions employs a commercial peptide substrate from Cisbio (Cat #62TK0PEC). The basic assay protocol is as follows: first, 2.5 μL of diluted compounds (4×) in DMSO are dispensed into a 384-well Optiplate. Next, 2.5 μL of enzyme (final concentrations for enzymes are: TYK2—700 ng/mL, JAK1—80.6 ng/mL, JAK2—2.1 ng/mL and JAK3—171.8 ng/mL) is added and incubated at RT for 5-20 min. Finally, 5 μl of mixture of 2×ATP [Final concentration 20 μM for TYK2, 21.43 μM for JAK1, 14.7 μM for JAK2 and 2.12 μM for JAK3]+2× Substrate [Final concentration 217 nM for TYK2, 454.7 nM for JAK1, 200 nM for JAK2 and 257.4 nM for JAK3] is added to 384 well Optiplate. Composition of Kinase assay buffer used in the assay is as follows: HEPES 50 mM, EGTA 1 mM, MgCl2 10 mM, DTT 2 mM, Tween-20 0.01% and water. Then the plates are shaken and then incubated at 26.5° C. for 60 min.

[7] = tested on: IL-2-stimulated HEK-Blue IL-2 reporter cells; assay: HEK-Blue IL-2 reporter assay (STAT5-inducible SEAP) for determining selectivity; assay type: cell-based; conditions: 4 ng/mL human recombinant IL-2, 24 hours
Outline: (§3)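 Cells were plated for 20-22 h, then pretreated with serially diluted compound for 60 min. They were stimulated for 24 h with 4 ng/mL human recombinant IL-2 or 50 ng/mL human recombinant IFNγ, and SEAP induction was read with QUANTI-Blue.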

[8] = tested on: IFNγ-stimulated HEK-Blue IFNγ reporter cells; assay: HEK-Blue IFNγ reporter assay (STAT1-inducible SEAP) for determining selectivity; assay type: cell-based; conditions: 50 ng/mL human recombinant IFNγ, 24 hours, read-out: IFN-γ SEAP selectivity assay IC50
Outline: as §3

T3 sequence (O60674 849-1124 limits assumed): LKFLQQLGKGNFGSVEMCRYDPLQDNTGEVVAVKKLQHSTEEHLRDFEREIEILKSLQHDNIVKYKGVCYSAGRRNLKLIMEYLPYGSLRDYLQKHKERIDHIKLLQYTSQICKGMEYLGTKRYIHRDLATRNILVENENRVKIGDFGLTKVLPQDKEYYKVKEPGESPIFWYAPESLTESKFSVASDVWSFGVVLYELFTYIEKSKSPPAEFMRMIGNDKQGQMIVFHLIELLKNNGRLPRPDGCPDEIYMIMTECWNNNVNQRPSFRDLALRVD
T2 sequence (P23458 875-1153 limits assumed): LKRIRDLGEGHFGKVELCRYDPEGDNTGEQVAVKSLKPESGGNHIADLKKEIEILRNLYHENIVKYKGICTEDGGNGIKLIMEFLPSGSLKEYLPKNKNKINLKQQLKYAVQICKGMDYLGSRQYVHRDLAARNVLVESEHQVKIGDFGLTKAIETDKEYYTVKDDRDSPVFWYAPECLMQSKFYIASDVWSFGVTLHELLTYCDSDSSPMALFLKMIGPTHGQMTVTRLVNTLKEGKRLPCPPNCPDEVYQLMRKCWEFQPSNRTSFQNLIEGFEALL
T4 sequence (P52333 822-1111 limits assumed): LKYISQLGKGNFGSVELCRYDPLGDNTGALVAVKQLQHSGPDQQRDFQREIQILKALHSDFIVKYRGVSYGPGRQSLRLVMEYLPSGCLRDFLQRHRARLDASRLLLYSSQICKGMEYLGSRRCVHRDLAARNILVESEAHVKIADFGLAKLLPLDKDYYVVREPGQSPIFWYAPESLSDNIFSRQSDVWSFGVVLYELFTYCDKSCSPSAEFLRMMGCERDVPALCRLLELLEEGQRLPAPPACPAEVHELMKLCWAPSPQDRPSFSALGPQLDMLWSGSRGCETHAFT

Structure (SMILES)	IC50 [3] [nM]	IC50 [4] [nM]	IC50 [5] [nM]	IC50 [6] [nM]	IC50 [1] [nM]	IC50 [2] [nM]	IC50 [7] [nM]	IC50 [8] [nM]
[2H]C([2H])([2H])NC(=O)c1cnc(NC(=O)C2CC2)cc1Nc1cccc2c1N(C)Cc1c[nH]nc1-2 [Compound 23, 6-(cyclopropanecarboxamido)-N-(methyl-d3)-4-((5-methyl-4,5-dihydro-2H-pyrazolo[4,3-c]quinolin-6-yl)amino)nicotinamide]	> 1000	> 1000	> 1000	> 1000	< 30	< 30	> 1000	> 1000
[2H]C([2H])([2H])NC(=O)c1cnc(NC(=O)C2CC2)cc1Nc1cccc2c1N(C([2H])([2H])[2H])Cc1cn(C)nc1-2 [Compound 26, 6-(cyclopropanecarboxamido)-N-(methyl-d3)-4-((2-methyl-5-(methyl-d3)-4,5-dihydro-2H-pyrazolo[4,3-c]quinolin-6-yl)amino)nicotinamide]	> 1000	> 1000	> 1000	> 1000	< 30	< 30	> 1000	30 to 300
[2H]C([2H])([2H])NC(=O)c1nnc(NC(=O)C2CC2)cc1Nc1cccc2c1N(C)Cc1c[nH]nc1-2 [Compound 27, 6-(cyclopropanecarboxamido)-N-(methyl-d3)-4-((5-methyl-4,5-dihydro-2H-pyrazolo[4,3-c]quinolin-6-yl)amino)pyridazine-3-carboxamide]	> 1000	> 1000	> 1000	> 1000	< 30	< 30	> 1000	30 to 300
CNC(=O)c1nnc(Nc2ccc(F)cn2)cc1Nc1cccc2c1OCc1cnn(C)c1-2 [Compound 49, 6-((5-fluoropyridin-2-yl)amino)-N-methyl-4-((1-methyl-1,4-dihydrochromeno[4,3-c]pyrazol-6-yl)amino)pyridazine-3-carboxamide]	> 1000	> 1000	> 1000	> 1000	30 to 300	> 1000	300 to 1000	< 30
[2H]C([2H])([2H])NC(=O)c1cnc(NC(=O)C2CC2)cc1Nc1cccc2c1N(C)Cc1cnn(C)c1-2 [Compound 51, 6-(cyclopropanecarboxamido)-4-((1,5-dimethyl-4,5-dihydro-1H-pyrazolo[4,3-c]quinolin-6-yl)amino)-N-(methyl-d3)nicotinamide]	> 1000	> 1000	> 1000	> 1000	< 30	30 to 300	> 1000	> 1000
COC(=O)c1cnc(NC(=O)C2CC2)cc1Nc1cccc2c1N(C)Cc1cn(C)nc1-2 [Compound 60, methyl 6-(cyclopropanecarboxamido)-4-((2,5-dimethyl-4,5-dihydro-2H-pyrazolo[4,3-c]quinolin-6-yl)amino)nicotinate]	> 1000	> 1000	> 1000	> 1000	< 30	< 30	> 1000	> 1000

Now from value to compound, other results behind:

IC50 [3] [nM]	IC50 [4] [nM]	IC50 [5] [nM]	IC50 [6] [nM]	Structure (SMILES)	IC50 [1] [nM]	IC50 [2] [nM]	IC50 [7] [nM]	IC50 [8] [nM]
> 1000	> 1000	> 1000	> 1000	[2H]C([2H])([2H])NC(=O)c1cnc(NC(=O)C2(O)CC2)cc1Nc1cccc2c1N(C)Cc1cn(C)nc1-2 [Compound 21, 4-((2,5-dimethyl-4,5-dihydro-2H-pyrazolo[4,3-c]quinolin-6-yl)amino)-6-(1-hydroxycyclopropane-1-carboxamido)-N-(methyl-d3)nicotinamide]	30 to 300	30 to 300	> 1000	> 1000
> 1000	> 1000	> 1000	> 1000	[2H]C([2H])([2H])NC(=O)c1cnc(NC(=O)C2CC2)nc1Nc1cccc2c1N(C)Cc1cn(C)nc1-2 [Compound 22, 2-(cyclopropanecarboxamido)-4-((2,5-dimethyl-4,5-dihydro-2H-pyrazolo[4,3-c]quinolin-6-yl)amino)-N-(methyl-d3)pyrimidine-5-carboxamide]	< 30	< 30	> 1000	> 1000
> 1000	> 1000	> 1000	> 1000	CNC(=O)c1nnc(NC(=O)C2CC2)cc1Nc1cccc2c1OCc1cnn(C)c1-2 [Compound 50, 6-(cyclopropanecarboxamido)-N-methyl-4-((1-methyl-1,4-dihydrochromeno[4,3-c]pyrazol-6-yl)amino)pyridazine-3-carboxamide]	300 to 1000	300 to 1000	30 to 300	300 to 1000
> 1000	> 1000	> 1000	> 1000	[2H]C([2H])([2H])NC(=O)c1cnc(N2CCN(C(C)C)C2=O)cc1Nc1cccc2c1N(C)Cc1cn(C)nc1-2 [Compound 61, 4-((2,5-dimethyl-4,5-dihydro-2H-pyrazolo[4,3-c]quinolin-6-yl)amino)-6-(3-isopropyl-2-oxoimidazolidin-1-yl)-N-(methyl-d3)nicotinamide]	< 30	30 to 300	> 1000	> 1000
> 1000	> 1000	> 1000	> 1000	[2H]C([2H])([2H])NC(=O)c1nnc(NC(=O)C2CC2)cc1Nc1nccc2c1N(C)Cc1cn(C)nc1-2 [Compound 65, 6-(cyclopropanecarboxamido)-4-((2,5-dimethyl-4,5-dihydro-2H-pyrazolo[4,3-c][1,7]naphthyridin-6-yl)amino)-N-(methyl-d3)pyridazine-3-carboxamide]	< 30	< 30	> 1000	30 to 300
> 1000	> 1000	> 1000	> 1000	[2H]C([2H])([2H])NC(=O)c1cnc(NC(=O)C2CC2)cc1Nc1nccc2c1N(C([2H])([2H])[2H])Cc1cn(C)nc1-2 [Compound 66, 6-(cyclopropanecarboxamido)-N-(methyl-d3)-4-((2-methyl-5-(methyl-d3)-4,5-dihydro-2H-pyrazolo[4,3-c][1,7]naphthyridin-6-yl)amino)nicotinamide]	< 30	< 30	> 1000	300 to 1000
